# Measurements: publication PMC6934184, “Selective DNA-PKcs inhibition extends the therapeutic index of localized radiotherapy and chemotherapy” (The Journal of Clinical Investigation, 2019)
# Biological target: T1, AMPK (A1/B1/G3) (Homo sapiens, UniProt Q13131)
# T1 construct: purchased Thermo Fisher Scientific (Life Technologies) SelectScreen
# Assay: SelectScreen LanthaScreen
# Format: binding
# Conditions: read-out: % displacement
# Procedure, shortened: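 Percent values come from Thermo SelectScreen profiling of NU5455, combining activity and binding assays. CSF1R was run in Z'LYTE format at Km app ATP, and CAMK1 in Adapta format with ATP listed at 10.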
# T1 sequence (Q13131 whole entry): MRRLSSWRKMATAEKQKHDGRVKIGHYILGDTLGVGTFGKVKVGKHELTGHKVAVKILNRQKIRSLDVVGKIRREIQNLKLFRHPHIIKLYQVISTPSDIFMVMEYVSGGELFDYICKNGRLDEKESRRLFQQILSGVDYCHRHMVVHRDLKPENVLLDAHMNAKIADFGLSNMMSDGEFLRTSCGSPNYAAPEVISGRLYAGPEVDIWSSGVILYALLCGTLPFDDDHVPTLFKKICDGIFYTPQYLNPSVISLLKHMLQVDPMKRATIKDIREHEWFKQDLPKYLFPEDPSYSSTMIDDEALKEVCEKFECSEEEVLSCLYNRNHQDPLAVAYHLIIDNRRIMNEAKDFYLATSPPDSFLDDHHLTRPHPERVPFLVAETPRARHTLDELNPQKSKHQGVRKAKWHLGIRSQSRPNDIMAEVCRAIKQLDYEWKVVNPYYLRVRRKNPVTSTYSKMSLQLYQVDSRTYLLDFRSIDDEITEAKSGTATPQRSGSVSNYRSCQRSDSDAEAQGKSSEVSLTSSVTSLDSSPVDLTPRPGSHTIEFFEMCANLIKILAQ
# T1 sequence (Q9Y478 whole entry partner): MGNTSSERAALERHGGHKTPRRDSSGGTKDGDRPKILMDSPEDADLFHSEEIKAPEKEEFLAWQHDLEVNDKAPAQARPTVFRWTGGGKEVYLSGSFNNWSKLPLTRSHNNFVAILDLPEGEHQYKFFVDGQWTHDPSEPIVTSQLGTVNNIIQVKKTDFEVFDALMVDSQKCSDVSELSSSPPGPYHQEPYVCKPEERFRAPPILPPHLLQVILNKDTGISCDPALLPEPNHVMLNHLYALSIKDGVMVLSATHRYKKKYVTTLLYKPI
# T1 sequence (Q9UGI9 whole entry partner): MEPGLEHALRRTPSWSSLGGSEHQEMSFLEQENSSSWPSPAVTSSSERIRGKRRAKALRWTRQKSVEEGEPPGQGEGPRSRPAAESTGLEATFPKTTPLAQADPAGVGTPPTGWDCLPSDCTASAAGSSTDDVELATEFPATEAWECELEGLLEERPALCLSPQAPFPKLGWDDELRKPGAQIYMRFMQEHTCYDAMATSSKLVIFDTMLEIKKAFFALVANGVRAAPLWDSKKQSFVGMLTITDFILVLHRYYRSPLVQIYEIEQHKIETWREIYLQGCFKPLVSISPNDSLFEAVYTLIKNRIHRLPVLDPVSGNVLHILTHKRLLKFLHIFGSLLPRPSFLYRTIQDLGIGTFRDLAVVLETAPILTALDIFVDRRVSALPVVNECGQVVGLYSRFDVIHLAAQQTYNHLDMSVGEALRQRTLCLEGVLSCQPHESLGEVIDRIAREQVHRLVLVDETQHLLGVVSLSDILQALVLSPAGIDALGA
structure (smiles),measurement,value
CN(C(=O)CN1CCOCC1)c1ccc2sc3c(-c4cccc5c(=O)cc(N6CC7CCC(C6)O7)oc45)cccc3c2c1 [NU5455],inhibition at 1 µM,0.2%
